Source: patent US20210038668A1, “TRADITIONAL CHINESE MEDICINE COMPOSITION FOR PREVENTING AND/OR TREATING ISCHEMIC REPERFUSION INJURY” (TASLY PHARMACEUTICAL GROUP CO., LTD., priority 2018, published 2021)

Assays:
[1] = tested on: brain tissue (edema); test: Brain tissue dry/wet weight ratio; type: in vivo, C57BL/6 mice; conditions: 24 h after administration; tPA 10 mg/kg alone; T541 20 mg/kg + tPA 10 mg/kg
Protocol: Brain tissue dry/wet weight ratio: after reperfused for 24 hours, mice were immediately anesthetized; the head was cut off to take brain; left and right brain was respectively weighed (denoted as wet weight). Afterwards, the brain was placed into a 60° C. drying oven for drying for 72 hours, and then weighed (denoted as dry weight). Brain tissue dry/wet weight ratio is calculated by […].

[2] = tested on: JAM-1; test: Western blotting of JAM-1, endothelial cells after hypoxia/reoxygenation; type: cell-based; conditions: rat brain endothelial cells, hypoxia 4.5 h/reoxygenation 3 h; tPA 20 mcg/ml alone (model group); T541 400 mcg/ml + tPA 20 mcg/ml
Text: Establishment of rat brain endothelial cell H/R model: rat brain endothelial cells were purchased from ATCC, and then subcultured to 5-6 generations in normal conditions for further experiment. […]

[3] = tested on: TUNEL positive cells of cerebral cortex in penumbra; test: TUNEL staining of brain tissue; type: in vivo, C57BL/6 mice; conditions: brain tissue 24 hours after administration; tPA 10 mg/kg alone; T541 20 mg/kg + tPA 10 mg/kg
Protocol: After reperfused for 24 hours, mice were killed to take brain, so as to observe the degree of cerebral hemorrhage and infarct size, measure the hemoglobin content in brain tissues after bleeding, detect dry/wet weight ratio and Evans Blue leakage of brain tissues, reflect the condition of tissue edema, observe the severity order of apoptosis by TUNEL staining brain tissues, observe the change of blood brain barrier of the blood vessel when injured by making Western blotting analysis on connexins Occludin, JAM-1, ZO-1, VE-cadherin and laminin, namely, the component of basement membrane and by conducting immunofluorescent staining on partial connexins and laminin, detect the change of the structure after cerebral ischemia reperfusion by a scanning electron microscope and IEM, and measure the change on the activity of brain tissues MDA, 8-OHdG, ATP/ADP/AMP and mitochondrial complexes I, II and IV by enzyme-linked immunosorbent assay (ELISA).

[4] = tested on: cerebral cortex vessels and neurons in penumbra; test: Transmission electron microscopy of cerebral cortex; type: in vivo, C57BL/6 mice; conditions: 24 h after administration
Protocol: Transmission electron microscope (IEM): after reperfused for 24 hours, anesthetized mice were perfused 3% glutaraldehyde for 40 minutes via ventriculus sinister at a rate of 3 ml/min; the brain was taken, and the mice right cortex was cut into small pieces (1 mm×1 mm×1 mm); small pieces were immobilized in 3% glutaraldehyde for 30 minutes at room temperature or stored over night at 4° C. The brain pieces were washed on a table containing sucrose for 3 times for 15 minutes, immobilized by osmic acid for 2 hours at room temperature, washed by 0.2; PBS for 3 times for 15 minutes, dehydrated for 15 minutes respectively by 30%, 50%, 70% and 90% acetone, and dehydrated for 15 minutes for 15 minutes by 100% acetone, then preimpregnated into a pre-embedding agent mixed by 100% acetone and embedding agent according to a ratio of 1:1; and kept over the night at 37° C.; then brain pieces were impregnated by a pure embedding agent for 24 hours at 37° C., and cured for 48 hours, then naturally cooled; afterwards, brain pieces were trimmed and cut into slices with the thickness of 60 nm. The slices were stained by uranyl acetate and lead citrate, and observed and shoot by a IEM (JEM 1230, JEOL, Tokyo, Japan).

[5] = tPA alone, T541 combined with tPA

Q: With “tPA: tissue-type plasminogen activator (tPA) for thrombolysis” as the substance, how does the “Brain dry/wet weight ratio” value [1] read?
A: 0.801 ± 0.002

Q: What about the JAM-1/β-actin [2] of the same substance?
A: 0.64 ± 0.05

Q: And the “TUNEL positive cell counting” value [3]?
A: 27.14 ± 1.77

Q: And the “TEM: vascular endothelium and perivascular edema (in words)” value ([4]; tPA 10 mg/kg alone, T541 20 mg/kg + tPA)?
A: vascular endothelium is rough, and has obvious edema gap with surrounding tissues

Q: What about the “TEM: endothelial cell adhesion structure of cerebral cortex vessels (in words)” value [4, 5] of the same substance?
A: the close adhesion structure of cerebral cortex vessels in penumbra field is opened

Q: What about the “TEM: neurons of cerebral cortex in penumbra (in words)” value [4, 5] of the same substance?
A: bodies of neuron shrink and deform
